pIC50: −log10 of the molar value.
Key:
Format in all cases: biochemical
TYK2 = TYK2 (Homo sapiens (Human), UniProt P29597); experiment: JAK Caliper Enzyme Assay at 1 mM ATP, TYK2
Procedure, shortened: (§1)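 First, compound was incubated at room temperature with recombinant human kinase domain, a synthetic peptide and 1 mM ATP until 20–30% of peptide was phosphorylated. Next, EDTA stopped the reaction. Finally, electrophoretic separation quantified product, and percent effect relative to controls was plotted against concentration.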

JAK1 = JAK1 (Homo sapiens (Human), UniProt P23458); experiment: JAK Caliper Enzyme Assay at 1 mM ATP, JAK1
Procedure, shortened: (§2)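 Recombinant human kinase domains phosphorylate a fluorescent synthetic peptide at 1 mM ATP, room temperature, with enzyme and time tuned for 20-30% conversion; EDTA-stopped. Product/substrate separated by microfluidic mobility shift; percent effect versus DMSO and positive controls fitted to IC50 (nM).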

JAK2 = JAK2 (Homo sapiens (Human), UniProt O60674); experiment: JAK Caliper Enzyme Assay at 1 mM ATP, JAK2
Procedure, shortened: as §1

JAK3 = JAK3 (Homo sapiens (Human), UniProt P52333); experiment: JAK Caliper Enzyme Assay at 1 mM ATP, JAK3
Procedure, shortened: as §2

JAK1, sequence (P23458 875-1153): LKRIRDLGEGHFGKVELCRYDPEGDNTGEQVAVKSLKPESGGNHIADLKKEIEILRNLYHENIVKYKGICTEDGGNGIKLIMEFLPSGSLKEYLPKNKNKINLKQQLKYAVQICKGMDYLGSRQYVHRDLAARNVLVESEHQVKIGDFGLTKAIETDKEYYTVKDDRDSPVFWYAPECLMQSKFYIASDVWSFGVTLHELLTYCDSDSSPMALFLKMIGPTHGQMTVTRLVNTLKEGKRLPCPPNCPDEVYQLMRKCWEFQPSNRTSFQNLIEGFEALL
JAK3, sequence (P52333 822-1111): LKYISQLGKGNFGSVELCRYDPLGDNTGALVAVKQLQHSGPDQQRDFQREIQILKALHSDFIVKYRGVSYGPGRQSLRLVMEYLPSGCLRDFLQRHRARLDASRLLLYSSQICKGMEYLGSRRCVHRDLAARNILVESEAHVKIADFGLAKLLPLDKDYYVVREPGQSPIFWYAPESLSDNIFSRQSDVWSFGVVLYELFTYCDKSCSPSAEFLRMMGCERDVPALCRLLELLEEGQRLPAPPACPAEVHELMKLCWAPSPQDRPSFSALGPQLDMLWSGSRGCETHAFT
TYK2, sequence (P29597 897-1176): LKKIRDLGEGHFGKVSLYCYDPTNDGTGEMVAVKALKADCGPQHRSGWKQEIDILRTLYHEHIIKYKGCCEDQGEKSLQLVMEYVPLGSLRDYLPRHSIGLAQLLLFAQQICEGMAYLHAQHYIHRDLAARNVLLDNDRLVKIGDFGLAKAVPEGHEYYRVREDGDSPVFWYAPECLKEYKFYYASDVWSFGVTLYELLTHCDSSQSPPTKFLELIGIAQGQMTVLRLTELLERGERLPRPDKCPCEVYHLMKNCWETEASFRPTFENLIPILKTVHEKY
JAK2, sequence (O60674 849-1124): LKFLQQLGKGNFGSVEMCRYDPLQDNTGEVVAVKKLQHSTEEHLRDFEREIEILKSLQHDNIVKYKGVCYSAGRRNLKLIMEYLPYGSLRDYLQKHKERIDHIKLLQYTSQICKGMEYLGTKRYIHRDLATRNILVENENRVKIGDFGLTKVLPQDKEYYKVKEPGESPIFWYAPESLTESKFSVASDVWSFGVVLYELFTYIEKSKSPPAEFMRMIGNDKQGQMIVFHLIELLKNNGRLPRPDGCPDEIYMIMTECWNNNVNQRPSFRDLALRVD

Row | Compound | pIC50 (TYK2) | pIC50 (JAK1) | pIC50 (JAK2) | pIC50 (JAK3)
1 | N#CC[C@]1(n2ccc(-c3nc(-c4ccc(S(N)(=O)=O)nc4)cc4ncccc34)n2)C[C@H](C#N)C1 [Example 210, 5-(5-{1-[trans-3-cyano-1-(cyanomethyl)cyclobutyl]-1H-pyrazol-3-yl}-1,6-naphthyridin-7-yl)pyridine-2-sulfonamide] | 7.21 | 5.82 | 6.52 | < 5.00
2 | N#CC[C@]1(n2ccc(-c3nc(-c4ccc(S(N)(=O)=O)nc4)cc4ncccc34)n2)C[C@H](C#N)C1 [Example 211, 5-(5-{1-[cis-3-cyano-1-(cyanomethyl)cyclobutyl]-1H-pyrazol-3-yl}-1,6-naphthyridin-7-yl)pyridine-2-sulfonamide] | 7.77 | 6.74 | 7.41 | 5.01
3 | N#CC[C@]1(n2ccc(-c3nc(-c4cccc(CO)n4)cc4ncccc34)n2)C[C@@H](C#N)C1 [Example 212, cis-3-(cyanomethyl)-3-(3-{7-[6-(hydroxymethyl)pyridin-2-yl]-1,6-naphthyridin-5-yl}-1H-pyrazol-1-yl)cyclobutanecarbonitrile] | 6.70 | 5.53 | 6.05 | < 5.00
4 | N#CC[C@]1(n2ccc(-c3nc(-c4ccnc(CO)c4)cc4ncccc34)n2)C[C@@H](C#N)C1 [Example 213, cis-3-(cyanomethyl)-3-(3-{7-[2-(hydroxymethyl)pyridin-4-yl]-1,6-naphthyridin-5-yl}-1H-pyrazol-1-yl)cyclobutanecarbonitrile] | 7.72 | 7.06 | 7.34 | 5.36
5 | N#CC[C@]1(n2ccc(-c3nc(-c4cccc(C(N)=O)n4)cc4ncccc34)n2)C[C@H](C#N)C1 [Example 214, 6-(5-{1-[cis-3-cyano-1-(cyanomethyl)cyclobutyl]-1H-pyrazol-3-yl}-1,6-naphthyridin-7-yl)pyridine-2-carboxamide] | 7.28 | 5.70 | 6.33 | < 5.00
6 | N#CCC1(n2ccc(-c3nc(-c4ccnc(C(N)=O)c4)cc4ncccc34)n2)CN(CC(F)(F)F)C1 [Example 215, 4-(5-{1-[3-(cyanomethyl)-1-(2,2,2-trifluoroethyl)azetidin-3-yl]-1H-pyrazol-3-yl}-1,6-naphthyridin-7-yl)pyridine-2-carboxamide] | 6.76 | 5.22 | 5.66 | < 5.00
7 | N#CC[C@]1(n2ccc(-c3nc(-c4ccnc(C(N)=O)c4)cc4ncccc34)n2)C[C@H](C#N)C1 [Example 216, 4-(5-{1-[cis-3-cyano-1-(cyanomethyl)cyclobutyl]-1H-pyrazol-3-yl}-1,6-naphthyridin-7-yl)pyridine-2-carboxamide] | 7.44 | 6.33 | 6.93 | < 5.00

Second part, the compound after the results:

Row | pIC50 (TYK2) | pIC50 (JAK1) | pIC50 (JAK2) | pIC50 (JAK3) | Compound
8 | 6.72 | 5.03 | 5.79 | < 5.00 | Cc1ncc(-c2cc3ncccc3c(-c3ccn(C4(CC#N)CN(S(C)(=O)=O)C4)n3)n2)cc1N [Example 217, [3-{3-[7-(5-amino-6-methylpyridin-3-yl)-1,6-naphthyridin-5-yl]-1H-pyrazol-1-yl}-1-(methylsulfonyl)azetidin-3-yl]acetonitrile]
9 | 7.42 | 5.57 | 6.25 | < 5.00 | Cc1ccc(-c2cc3ncccc3c(-c3ccn(C4(CC#N)CN(S(C)(=O)=O)C4)n3)n2)c(N)n1 [Example 218, [3-{3-[7-(2-amino-6-methylpyridin-3-yl)-1,6-naphthyridin-5-yl]-1H-pyrazol-1-yl}-1-(methylsulfonyl)azetidin-3-yl]acetonitrile]
10 | 6.31 | 5.19 | 5.76 | < 5.00 | Cc1cc(-c2cc3ncccc3c(-c3ccn(C4(CC#N)CN(S(C)(=O)=O)C4)n3)n2)cnc1N [Example 219, [3-{3-[7-(6-amino-5-methylpyridin-3-yl)-1,6-naphthyridin-5-yl]-1H-pyrazol-1-yl}-1-(methylsulfonyl)azetidin-3-yl]acetonitrile]

Source: US11254668B2, “Pyrazolo[1,5-A]pyrazin-4-yl and related derivatives” (Pfizer Inc., priority 2017, dated 2022)
